In US20120083522A1, “MODULATION OF INFLAMMATORY RESPONSES BY FACTOR XI” (Isis Pharmaceuitcals, inc., priority 2009, published 2012):
In the oligonucleotide strings, read from the 5' end, every base follows the letter of its sugar. An asterisk marks phosphorothioate; unmarked linkages are phosphodiester. Other units and linkages are bracketed, terminal groups are in braces. A string of capitals states the bases alone. e = 2'-O-(2-methoxyethyl) (MOE); [5mC] = 5-methylcytosine; d = 2'-deoxy (DNA)

Assays:
P-selectin = test: Colitis Study C: serum P-selectin; assay type: in vivo, mice
Description: The effect of antisense inhibition of Factor XI on serum P-selectin levels was evaluated in this study. DSS administration led to increase in P-selectin levels which was reduced by treatment with ISIS 404071.

[1] = tested on: collagen-induced arthritis model; test: Arthritis Study B: collagen-induced arthritis, clinical effects (Example 11); assay type: in vivo, DBA/1J mice
Description: The effect of inhibition of Factor XI and its role in fibrin accumulation in the joints leading to joint inflammation and rheumatoid arthritis was evaluated in a murine collagen-induced arthritis (CIA) model. […] Arthritis induced in mice administered collagen can be visually assessed and clinically scored as described by Marty et al. (J Clin Invest, 107:631-640, 2001) where 1 point is given for each swollen digit except the thumb (maximum, 4), 1 point is given for the tarsal or carpal joint, and 1 point is given for the metatarsal or metacarpal joint with a maximum score of […]. Each paw was graded individually, the cumulative clinical arthritic score per mouse reaching a maximum of 22 points
In a group of 20 DBA/1J mice, 20 mg/kg of ISIS 404071 were injected subcutaneously twice a week for ten weeks. In a second group of 20 DBA/1J mice, 20 mg/kg of ISIS 404057 were injected subcutaneously twice a week for ten weeks. In a third control group of 20 DBA/1J mice, 20 mg/kg of ISIS 421208 were injected subcutaneously twice a week for ten weeks. Two control groups of 20 mice each were injected with PBS twice a week for ten weeks.
Two and a half weeks after the first oligonucleotide dose, type II bovine collagen in complete Freund's adjuvant was injected subcutaneously at the base of the tail in all the experimental groups and one PBS control group. A booster injection containing 100 μg collagen type II in incomplete Freund's adjuvant was injected subcutaneously at the base of the tail at a different injection site on day 21 after the first collagen injection in these groups.
Mice in all groups were examined daily after day 30 after the first collagen injection for the visual appearance of arthritis in peripheral joints. The results in Table 22 are expressed as percent change compared to the PBS control except for the liver and spleen weight.

bradykinin = test: Colitis Study D: bradykinin levels in colon; assay type: in vivo, Swiss Webb mice; details: for Bradykinin levels in colon: DSS-treated mice
Description: In a first group of 8 Swiss Webb mice, 10 mg/kg of ISIS 404071 was injected subcutaneously twice a week for 3 weeks. In a second group of 8 Swiss Webb mice, 20 mg/kg of ISIS 404057 was subcutaneously injected twice a week for 3 weeks. In a third control group of 8 Swiss Webb mice, 40 mg/kg of ISISI 404057 was injected subcutaneously twice a week for 3 weeks. Two control groups of 8 mice each were injected with PBS twice a week for 3 weeks. After the oligonucleotide treatment, 4% DSS in water was administered ad libitum for 7 days to all the experimental groups and one PBS control group.
The effect of antisense inhibition of Factor XI on kinin levels in the colon was evaluated (Phoenix Pharmaceuticals, Burlingame, Calif.) and the results are presented in Table 32.

murine Factor XI protein = test: In vivo antisense inhibition of murine Factor XI: plasma protein analysis (Example 10); details: BALB/c mice; for % inhibition: Factor XI protein, relative to PBS control
Description: BALB/c mice were injected with 5 mg/kg, 10 mg/kg, 25 mg/kg, or 50 mg/kg of ISIS 404057 or ISIS 404071 twice a week for 3 weeks. A control group of mice was injected with phosphate buffered saline (PBS) twice a week for 3 weeks. Mice were sacrificed 5 days after receiving the last dose. Whole liver was harvested for RNA analysis and plasma was collected for protein analysis.
Results are presented as percent inhibition of Factor XI, relative to PBS control.

[2] = tested on: DSS-induced colitis model; test: Colitis Study E: weight change, colon length, stool analysis; assay type: in vivo, Swiss Webb mice; details: for Colon length / Weight change / Diarrhea score: DSS-treated mice; for Colon length / Weight change: 40 mpk; for Diarrhea score: day 7, 40 mpk
Description: (§1) Two groups 8 Swiss Webb mice were dosed with 40 mg/kg of ISIS 404071 injected subcutaneously twice a week for 3 weeks. Two control groups of 8 Swiss Webb mice were dosed with PBS subcutaneously twice a week for 3 weeks. Both the ASO treated groups and one of the control groups were then given 4% DSS in distilled water for 7 days ad libitum. One of the ASO and DSS treated groups was also given intravenous injections of 20 μg of recombinant human Factor XI protein (Haematologic Technologies Inc.) for 7 consecutive days, starting the day before DSS treatment. Mice were sacrificed at the end of the study on day 7 after DSS was administered.
Mice in all groups were weighed at day 0 and at the end of the study. […] Mice were sacrificed at the end of the study on day 7 after DSS was administered and their colon lengths were measured.

[3] = tested on: DSS-induced colitis model; test: Colitis Study F: body weight, stool scores, colon length and weight; assay type: in vivo, Swiss Webb mice; details: DSS-treated mice, 50 mg/kg, Day 8
[4] = tested on: DSS-induced colitis model; test: Colitis Study A: colon tissue histopathology
Factor XI mRNA = test: Colitis Study E: Factor XI mRNA levels; assay type: in vivo, Swiss Webb mice; details: compared to untreated PBS control; for % inhibition of Factor XI mRNA levels: DSS-treated mice, 40 mpk
Description: as §1

[5] = DBA/1J mice, 20 mg/kg s.c. twice a week for ten weeks, end of study
[6] = plus human recombinant FXI 20 ug/mouse/day

TGGTAATCCACTTTCAGAGG (eT*eG*eG*eT*eA*dA*dT*d[5mC]*d[5mC]*dA*d[5mC]*dT*dT*dT*d[5mC]*eA*eG*eA*eG*eG) [ISIS 404071, 5-10-5 MOE gapmer targeting murine Factor XI, target start site 869]
P-selectin levels (in words) (P-selectin): reduced
P-selectin (P-selectin; DSS-induced colitis mice): 83 ng/mL
amount of arthritis assessed (in words) ([1]; Arthritis Study B, 20 mg/kg twice a week for ten weeks, compared to untreated mice): significantly decreased the amount of arthritis
% of CIA [1, 5]: 64%
% of paws affected [1, 5]: 20%
Average no. of paws affected [1, 5]: 0.82
Clinical severity of CIA [1, 5]: 4.6
bradykinin levels (in words) (bradykinin; Colitis Study D): decreased
Bradykinin levels in colon (bradykinin; 10 mpk): 0.03 ng/mg protein
Bradykinin levels in colon (bradykinin; 20 mpk): 0.00 ng/mg protein
Bradykinin levels in colon (bradykinin; 40 mpk): 0.02 ng/mg protein
Factor XI protein (in words) (murine Factor XI protein; 5-50 mg/kg twice a week for 3 weeks): significant dose-dependent reduction of Factor XI protein
% inhibition (murine Factor XI protein; 5 mg/kg twice a week for 3 weeks): 39%
% inhibition (murine Factor XI protein; 10 mg/kg twice a week for 3 weeks): 67%
% inhibition (murine Factor XI protein; 25 mg/kg twice a week for 3 weeks): 89%
% inhibition (murine Factor XI protein; 50 mg/kg twice a week for 3 weeks): 96%
colon length (in words) ([2]; Colitis Study E, day 7): increase in colon length
stool softness/diarrhea (in words) ([2]; Colitis Study E, day 7): amelioration of diarrhea
Colon length ([2]; no human recombinant FXI): 9.9 cm
Weight change ([2]; no human recombinant FXI): +1.8%
Colon length [2, 6]: 7.3 cm
Weight change [2, 6]: +0.3%
Diarrhea score ([2]; no human recombinant FXI): 0.5
Diarrhea score [2, 6]: 2.0
Stool score [3]: 2
colon histology, lesions (in words) ([4]; FIG. 8): significantly fewer mucosa ulcerative lesions
colon histology, lesions (in words) ([4]; FIG. 8, listed as Factor XI): significantly milder ulcerative colitis lesions
mucosa ulcers ([4]; FIG. 8D, DSS control 2-4/animal): > 1 /animal
Factor XI levels (in words) (Factor XI mRNA; Colitis Study E, 40 mg/kg): significantly decreased
% inhibition of Factor XI mRNA levels (Factor XI mRNA; no human recombinant FXI): 82%
% inhibition of Factor XI mRNA levels (Factor XI mRNA; [6]): 83%
